Data from patent US8546320B2, “Hsp9O-targeted anti-cancer chimeric peptide” (Kyoto University, priority 2008, dated 2013).
Where a SMILES comes first, the peptide text is derived from it.

Assays:
cancer cells = experiment: Cell viability assay, summary statements on cancer cells; format: cell-based; details: single mutation in TPR or Antp region of Antp-TPR
Caki-1 = format: cell-based, human; details: Caki-1; for Anti-cancer activity (% relative to wild-type peptide) / Decrease in cell survival rate (% relative to wild-type peptide): wild-type peptide = 100%
Description: A total of 3×10^3 cells were inoculated per well on a 96 well plate and cultured in a medium containing 10% FBS for 24 hours, and incubated with 100 μl of a peptide having a gradual increase in concentration at 37° C. for 48 to 72 hours. The survival rate of the cells was measured by using WST-8 solution (Cell Count Reagent SF; Nacalai Tesque, Inc.).
(§1) Respective variant peptides were subjected to cell viability assay. Specifically, Caki-1 (American Type Culture Collection (Manassas, Va.) was inoculated in a total amount of 3×10^3 cells per well on a 96 well plate (Nunc™); the cells were cultured in a medium (DMEM (Tesque, Inc.) containing 10% FBS (fetal bovine serum; Biowest)) for 24 hours and incubated with 100 μl of a peptide having a gradual increase in concentration at 37° C. for 48 to 72 hours. The cell survival rate was measured by using WST-8 solution (Cell Count Reagent SF; Nacalai Tesque, Inc.) and compared with that of the wild-type Antp-TPR peptide.
as §1, with “medium” for “medium (DMEM (Tesque, Inc.)”, “FBS” for “FBS (fetal bovine serum; Biowest))”

| Compound | effect compared with the wild-type protein (summary of mutations) (cancer cells) | killing effect compared with the wild-type peptide (Caki-1) | Anti-cancer activity (% relative to wild-type peptide) (Caki-1) [%] | Decrease in cell survival rate (% relative to wild-type peptide) (Caki-1) [%] |
| --- | --- | --- | --- | --- |
| CC[C@H](C)[C@H](NC(=O)[C@H](CCCNC(=N)N)NC(=O)[C@H](C)NC(=O)[C@H](Cc1ccc(O)cc1)NC(=O)[C@H](C)NC(=O)[C@H](CCCCN)NC(=O)[C@H](CCCCN)NC(=O)[C@H](CCCCN)NC(=O)[C@H](Cc1c[nH]c2ccccc12)NC(=O)[C@H](CCCCN)NC(=O)[C@H](CCSC)NC(=O)[C@H](CCCCN)NC(=O)[C@H](CCCNC(=N)N)NC(=O)[C@H](CC(N)=O)NC(=O)[C@H](CCC(N)=O)NC(=O)[C@H](Cc1ccccc1)NC(=O)[C@H](Cc1c[nH]c2ccccc12)NC(=O)[C@@H](NC(=O)[C@H](CCCCN)NC(=O)[C@@H](NC(=O)[C@H](CCC(N)=O)NC(=O)[C@@H](N)CCCNC(=N)N)[C@@H](C)CC)[C@@H](C)CC)C(=O)NCC(=O)N[C@@H](CC(N)=O)C(=O)N[C@@H](CO)C(=O)N[C@@H](Cc1ccc(O)cc1)C(=O)N[C@@H](Cc1ccccc1)C(=O)N[C@@H](CCCCN)C(=O)O [Antp R11K-TPR] (H-RQIKIWFQNRKMKWKKKAYARIGNSYFK-OH; N-terminus and C-terminus assumed) | effect similar to that of the wild-type protein | stronger than that of the wild-type peptide | 104.39 | 158.09 |
| CC[C@H](C)[C@H](NC(=O)[C@H](CCCNC(=N)N)NC(=O)[C@H](C)NC(=O)[C@H](Cc1ccc(O)cc1)NC(=O)[C@H](C)NC(=O)[C@H](CCCCN)NC(=O)[C@H](CCCCN)NC(=O)[C@H](CCCCN)NC(=O)[C@H](Cc1c[nH]c2ccccc12)NC(=O)[C@H](CCCCN)NC(=O)[C@H](CCSC)NC(=O)[C@H](CCCNC(=N)N)NC(=O)[C@H](CCCCN)NC(=O)[C@H](CC(N)=O)NC(=O)[C@H](CCC(N)=O)NC(=O)[C@H](Cc1ccccc1)NC(=O)[C@H](Cc1c[nH]c2ccccc12)NC(=O)[C@@H](NC(=O)[C@H](CCCCN)NC(=O)[C@@H](NC(=O)[C@H](CCC(N)=O)NC(=O)[C@@H](N)CCCNC(=N)N)[C@@H](C)CC)[C@@H](C)CC)C(=O)NCC(=O)N[C@@H](CC(N)=O)C(=O)N[C@@H](CO)C(=O)N[C@@H](Cc1ccc(O)cc1)C(=O)N[C@@H](Cc1ccccc1)C(=O)N[C@@H](CCCCN)C(=O)O [Antp R10K-TPR] (H-RQIKIWFQNKRMKWKKKAYARIGNSYFK-OH; N-terminus and C-terminus assumed) | effect similar to that of the wild-type protein | stronger than that of the wild-type peptide | 110.30 | 727.03 |
| CC[C@H](C)[C@H](NC(=O)[C@H](CCCNC(=N)N)NC(=O)[C@H](C)NC(=O)[C@H](Cc1ccc(O)cc1)NC(=O)[C@H](C)NC(=O)[C@H](CCCCN)NC(=O)[C@H](CCCCN)NC(=O)[C@H](CCCCN)NC(=O)[C@H](Cc1c[nH]c2ccccc12)NC(=O)[C@H](CCCCN)NC(=O)[C@H](CCSC)NC(=O)[C@H](CCCNC(=N)N)NC(=O)[C@H](CCCNC(=N)N)NC(=O)[C@H](CC(N)=O)NC(=O)[C@H](CC(N)=O)NC(=O)[C@H](Cc1ccccc1)NC(=O)[C@H](Cc1c[nH]c2ccccc12)NC(=O)[C@@H](NC(=O)[C@H](CCCCN)NC(=O)[C@@H](NC(=O)[C@H](CCC(N)=O)NC(=O)[C@@H](N)CCCNC(=N)N)[C@@H](C)CC)[C@@H](C)CC)C(=O)NCC(=O)N[C@@H](CC(N)=O)C(=O)N[C@@H](CO)C(=O)N[C@@H](Cc1ccc(O)cc1)C(=O)N[C@@H](Cc1ccccc1)C(=O)N[C@@H](CCCCN)C(=O)O [Antp Q8N-TPR] (H-RQIKIWFNNRRMKWKKKAYARIGNSYFK-OH; N-terminus and C-terminus assumed) | effect similar to that of the wild-type protein | stronger than that of the wild-type peptide | 109.65 | 519.29 |
